Source: PubChem BioAssay AID248 (DTP/NCI, 2004)
Where “and” joins values, the source holds several entries; their conditions need not be identical. Equal entries are not always repeated. Toxic doses and inconclusive results are not listed. Rule as the data show it: active = T/C of 150% or more; inactive = T/C below 125%.

System: L1210 leukemia ip in BDF1 mice, survival T/C
Assay: NCI In Vivo Anticancer Drug Screen. Data for tumor model L1210 Leukemia (intraperitoneal) in B6D2F1 (BDF1) mice
Details: endpoint: mean survival time, higher = longer survival
How it was run: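 Transplanted-tumor mice were given test agent; controls received vehicle only. Survival readings from the two groups were divided (treated over control).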

[1] = dose: 6.25 mg/kg/injection, schedule: Q01DX009 (ip), vehicle: saline
[2] = dose: 12.5 mg/kg/injection, schedule: Q01DX009 (ip), vehicle: saline
[3] = dose: 25.0 mg/kg/injection, schedule: Q01DX001 (ip), vehicle: saline
[4] = dose: 100.0 mg/kg/injection, schedule: Q01DX001 (ip), vehicle: saline
[5] = dose: 50.0 mg/kg/injection, schedule: Q01DX001 (ip), vehicle: saline
[6] = dose: 200.0 mg/kg/injection, schedule: Q01DX001 (ip), vehicle: saline
[7] = dose: 400.0 mg/kg/injection, schedule: Q01DX001 (ip), vehicle: saline
[8] = dose: 100.0 mg/kg/injection, schedule: Q04DX003 (ip), vehicle: saline with Tween-80
[9] = dose: 200.0 mg/kg/injection, schedule: Q04DX003 (ip), vehicle: saline with Tween-80
[10] = dose: 400.0 mg/kg/injection, schedule: Q04DX003 (ip), vehicle: saline with Tween-80
[11] = dose: 100.0 mg/kg/injection, schedule: Q04DX003 (ip), vehicle: saline
[12] = dose: 200.0 mg/kg/injection, schedule: Q04DX003 (ip), vehicle: saline
[13] = dose: 50.0 mg/kg/injection, schedule: Q04DX003 (ip), vehicle: saline
[14] = dose: 50.0 mg/kg/injection, schedule: Q01DX001 (ip), vehicle: carboxymethylcellulose (CMC)
[15] = dose: 100.0 mg/kg/injection, schedule: Q01DX001 (ip), vehicle: carboxymethylcellulose (CMC)
[16] = dose: 200.0 mg/kg/injection, schedule: Q01DX001 (ip), vehicle: carboxymethylcellulose (CMC)
[17] = dose: 100.0 mg/kg/injection, schedule: Q01DX009 (ip), vehicle: saline with Tween-80
[18] = dose: 200.0 mg/kg/injection, schedule: Q01DX009 (ip), vehicle: saline with Tween-80

Measured: T/C

CC(=O)Nc1cc2ccc3ccccc3c2c2ccccc12
inactive: dose: 75.0 mg/kg/injection, schedule: Q04DX002 (ip), vehicle: Klucel (hydroxypropylcellulose) (HPC) 102 % of control | dose: 150.0 mg/kg/injection, schedule: Q04DX002 (ip), vehicle: Klucel (hydroxypropylcellulose) (HPC) 97 % of control | dose: 300.0 mg/kg/injection, schedule: Q04DX002 (ip), vehicle: Klucel (hydroxypropylcellulose) (HPC) 97 % of control

FC(F)(CI)C(F)(F)C(F)(F)CI
inactive: dose: 100.0 mg/kg/injection, schedule: Q01DX001 (ip), vehicle: acetone 88 % of control | dose: 200.0 mg/kg/injection, schedule: Q01DX001 (ip), vehicle: acetone 88 % of control | dose: 400.0 mg/kg/injection, schedule: Q01DX001 (ip), vehicle: acetone 88 % of control

Cc1ccc2nc(C)cc(NC(=O)c3ccccc3)c2c1
inactive: dose: 5.0 mg/kg/injection, schedule: Q01DX001 (ip), vehicle: saline 110 % of control | dose: 10.0 mg/kg/injection, schedule: Q01DX001 (ip), vehicle: saline 95 % of control | dose: 20.0 mg/kg/injection, schedule: Q01DX001 (ip), vehicle: saline 100 % of control | dose: 40.0 mg/kg/injection, schedule: Q01DX001 (ip), vehicle: saline 105 % of control | dose: 80.0 mg/kg/injection, schedule: Q01DX001 (ip), vehicle: saline 106 % of control

CCOC(=O)Nc1cc(NC(C)CCCN(CC)CC)c2ncc(-c3ccc(Cl)c(Cl)c3)nc2n1 (stereo not drawn) (tested in a mixture with another compound)
inactive: dose: 6.25 mg/kg/injection, schedule: Q01DX001 (ip), vehicle: saline 99 % of control | [1] 91 % of control | dose: 12.5 mg/kg/injection, schedule: Q01DX001 (ip), vehicle: saline 101 % of control | [2] 95 % of control | [3] 89 % of control | dose: 25.0 mg/kg/injection, schedule: Q01DX009 (ip), vehicle: saline 106 % of control | [4] 103 % of control

[O-][N+](CCO)(CCO)Cc1ccccc1
inactive: [5] 103 % of control | [4] 103 % of control | [6] 103 % of control | [7] 101 % of control

Cc1ccc(N)cc1Cl
inactive: dose: 100.0 mg/kg/injection, schedule: Q04DX003 (ip), vehicle: alcohol 97 % of control | dose: 200.0 mg/kg/injection, schedule: Q04DX003 (ip), vehicle: alcohol 102 % of control | dose: 400.0 mg/kg/injection, schedule: Q04DX003 (ip), vehicle: alcohol 88 % of control

NC(=O)C(Cl)Cl
inactive: [8] 113 % of control | [9] 103 % of control | [10] 94 % of control

O=C1c2ccccc2C(=O)c2c(O)c(Cc3ccccc3)cc(O)c21
inactive: [11] 105 % of control | [12] 97 % of control | dose: 400.0 mg/kg/injection, schedule: Q04DX003 (ip), vehicle: saline 97 % of control

CCCCC(NC(=O)C(F)(F)F)C(=O)O (stereo not drawn)
inactive: dose: 100.0 mg/kg/injection, schedule: Q01DX009 (ip), vehicle: carboxymethylcellulose (CMC) 105 % of control | dose: 200.0 mg/kg/injection, schedule: Q01DX009 (ip), vehicle: carboxymethylcellulose (CMC) 96 % of control

CCOc1ccc(CO)cc1
inactive: [8] 97 % of control | [9] 100 % of control | [10] 89 % of control

S=c1cc[nH]c(=S)[nH]1
inactive: dose: 50.0 mg/kg/injection, schedule: Q04DX003 (ip), vehicle: Klucel (hydroxypropylcellulose) (HPC) 97 % of control | dose: 100.0 mg/kg/injection, schedule: Q04DX003 (ip), vehicle: Klucel (hydroxypropylcellulose) (HPC) 97 % of control | dose: 200.0 mg/kg/injection, schedule: Q04DX003 (ip), vehicle: Klucel (hydroxypropylcellulose) (HPC) 95 % of control

CCN(CC)CCn1c(=O)c2ccccc2c2ccccc21
inactive: [5] 108 % of control | dose: 50.0 mg/kg/injection, schedule: Q01DX009 (ip), vehicle: saline 106 % of control | [13] 103 % of control | [4] 104 % of control | [11] 111 % of control | [12] 107 % of control

Cc1nc2[nH]cnc(=S)c2[nH]1
inactive: dose: 100.0 mg/kg/injection, schedule: Q01DX001 (ip), vehicle: other 107 % of control | dose: 200.0 mg/kg/injection, schedule: Q01DX001 (ip), vehicle: other 103 % of control

Fc1ccc(NC(=S)Nc2cc(Cl)cc(Cl)c2)cc1
inactive: dose: 7.5 mg/kg/injection, schedule: Q01DX Z (ip), vehicle: carboxymethylcellulose (CMC) 96 % of control | dose: 15.0 mg/kg/injection, schedule: Q01DX Z (ip), vehicle: carboxymethylcellulose (CMC) 93 % of control | dose: 30.0 mg/kg/injection, schedule: Q01DX Z (ip), vehicle: carboxymethylcellulose (CMC) 100 % of control | [14] 98 % of control | dose: 60.0 mg/kg/injection, schedule: Q01DX Z (ip), vehicle: carboxymethylcellulose (CMC) 87 % of control | dose: 75.0 mg/kg/injection, schedule: Q01DX Z (ip), vehicle: carboxymethylcellulose (CMC) 87 % of control | [15] 93 % of control | [16] 95 % of control

CC(C)=CCC/C(C)=C/C=C1C(=O)NC(=S)NC1=O
inactive: dose: 50.0 mg/kg/injection, schedule: Q01DX009 (ip), vehicle: saline with Tween-80 117 % of control | [17] 103 % of control | [18] 103 % of control

CC(=O)c1cc(C)c(O)c(C)c1
inactive: [14] 107 % of control | [15] 89 % of control | [16] 94 % of control | dose: 400.0 mg/kg/injection, schedule: Q01DX001 (ip), vehicle: carboxymethylcellulose (CMC) 91 % of control

N#CC1=C(N)CCP(c2ccccc2)C1 (stereo not drawn)
inactive: [8] 94 % of control | [9] 97 % of control | [10] 100 % of control

CCCCCCc1c(N)nc(N)[nH]c1=O
inactive: dose: 100.0 mg/kg/injection, schedule: Q01DX001 (ip), vehicle: saline with Tween-80 98 % of control | dose: 200.0 mg/kg/injection, schedule: Q01DX001 (ip), vehicle: saline with Tween-80 89 % of control | dose: 400.0 mg/kg/injection, schedule: Q01DX001 (ip), vehicle: saline with Tween-80 98 % of control

Cc1onc(-c2ccccc2Cl)c1C(=O)NCC(=O)O
inactive: dose: 100.0 mg/kg/injection, schedule: Q04DX002 (ip), vehicle: saline with Tween-80 104 % of control | dose: 200.0 mg/kg/injection, schedule: Q04DX002 (ip), vehicle: saline with Tween-80 100 % of control | dose: 400.0 mg/kg/injection, schedule: Q04DX002 (ip), vehicle: saline with Tween-80 100 % of control

O=[N+]([O-])c1ccc(S(=O)(=O)c2ccccc2)c([N+](=O)[O-])c1
inactive: dose: 6.0 mg/kg/injection, schedule: Q01DX001 (ip), vehicle: saline 93 % of control | dose: 12.0 mg/kg/injection, schedule: Q01DX001 (ip), vehicle: saline 100 % of control | [3] 91 % of control | [5] 100 % of control and 105 % of control | [6] 95 % of control

c1ccc(C[N+]23CCC(CC2)CC3)cc1
inactive: dose: 3.13 mg/kg/injection, schedule: Q01DX009 (ip), vehicle: saline 95 % of control | [1] 99 % of control | [2] 101 % of control

CC(=O)N(O)CCCC1NC(=O)C(CCCN(O)C(C)=O)NC1=O (stereo not drawn)
inactive: [4] 97 % of control | [17] 100 % of control | [8] 92 % of control | [6] 95 % of control | [18] 102 % of control | [9] 92 % of control | [7] 95 % of control | dose: 400.0 mg/kg/injection, schedule: Q01DX009 (ip), vehicle: saline with Tween-80 105 % of control | [10] 100 % of control

CCCCNCCOC(=O)c1ccc(N)cc1
inactive: dose: 75.0 mg/kg/injection, schedule: Q01DX001 (ip), vehicle: saline 106 % of control

Nc1nc(CCc2ccc(NC(=O)CBr)cc2)c(CCCCc2ccccc2)c(=O)[nH]1
inactive: [5] 104 % of control | [4] 102 % of control | [6] 96 % of control | [7] 110 % of control

OCCCN1CCN(CCCC2c3ccccc3Sc3ccc(Cl)cc32)CC1 (stereo not drawn)
inactive: dose: 25.0 mg/kg/injection, schedule: Q04DX003 (ip), vehicle: saline 102 % of control | [13] 109 % of control

COc1cc(/C=C\[N+](=O)[O-])ccc1O
inactive: dose: 25.0 mg/kg/injection, schedule: Q04DX003 (ip), vehicle: saline with Tween-80 93 % of control | dose: 50.0 mg/kg/injection, schedule: Q04DX003 (ip), vehicle: saline with Tween-80 96 % of control | [8] 95 % of control
